Experiments:
[1] = Saturation concentration (solubility) of CBD in PIB adhesive, CBD added until turbidity; type: physicochemical
Description: Regarding peel strength of adhesives, the inventor used judgment and estimation for preparing the patch with 26% of tackifying resin. Escorez 5400 has been used in many adhesives but not in PIB. […] The inventor estimated the peel strength of the formulation with tackifier and without tackifier, by peeling them both from the inventor's own arm skin. To obtain saturation concentration of CBD in the PIB adhesive with 26% of tackifying resin Escorez 5400 the inventor needed to add more CBD to reach turbidity. […] It was the same as the flux from PIB saturated with CBD without tackifier.
This is expected to result in thus greater flux of CBD to a patient, where the dermal patch is in contact with the skin of a patient.

[2] = Transdermal flux / transdermal delivery from PIB adhesive patch (Franz diffusion cell)
Description: The inventor used a Franz cell for assessing release kinetics, as described below. For testing release kinetics from transdermal monolithic patches, where a semi-solid adhesive matrix is used, the Franz cell has the following components, from top to bottom: (1) Stopper used to seal top of donor compartment; (2) Donor compartment; (3) Patch situated at very bottom of donor compartment, with adhesive side of patch attached to human cadaver skin; (4) Human cadaver skin located immediately under the patch; (5) Receiving compartment, located immediately below the skin. Receiving compartment is filled with ethanol/water solution; (6) Magnetic stirrer located at bottom of receiving compartment.
After receiving the donor human skin, the inventor prepared the skin for testing in a Franz cell by thawing the skin to room temperature, washing in distilled water and cutting in round pieces to fit the diameter of the Franz cell opening. Before placing the patch on the human skin, the inventor dried the skin with a paper tissue. The skin with the attached patch was placed between the Upper Donor Chamber and the Lower Receiving Chamber and clamped tightly. […] The test lasts typically 24 hrs and aliquots of 150 L were withdrawn from the receiving chamber after different periods of time and analyzed via HPLC. […]

[3] = as measured at room temperature; cited from earlier work
[4] = cited from earlier work

With `C=C(C)[C@@H]1CCC(C)=C[C@H]1c1c(O)cc(CCCCC)cc1O` [CBD, cannabidiol] the “concentration of the saturation of CBD in PIB adhesive” value ([1]; PIB adhesive with 26% of tackifying resin Escorez 5400, CBD added to reach turbidity) was “about 18%”, the “solubility of CBD in PIB adhesive, effect of Escorez 5400 tackifier” value ([1]; with Escorez 5400 tackifier versus without) was “increased” and the “transdermal flux of CBD” value ([2]; PIB adhesive with 26% Escorez 5400 saturated with CBD, versus PIB saturated with CBD without tackifier) was “did not increase”.
For `O=S(=O)(O)CCNC1CCCCC1` [CHES], the pKa [3] is given as 9.5.
In the case of `COc1cc(CNC(=O)CCCC/C=C/C(C)C)ccc1O` [Capsaicin, trans-8-methyl-N-vanillyl-6-nonenamide], the water solubility [4] is given as “not water-soluble”.
For `O=S(=O)(O)CCN1CCN(CCS(=O)(=O)O)CC1` [PIPES], the pKa [3] is listed as 6.8.
In the case of `OB(O)O` [boric acid], the pKa [3] is listed as 9.2.
In the case of `CCCCCCCC/C=C\CCCCCCCC(=O)O` [oleic acid], the “transdermal delivery from PIB adhesive with enhancer” value ([2]; enhancer at 3% in PIB adhesive, versus PIB without enhancer) is reported as “double”.

— US20240075182A1, “ENHANCED DERMAL PATCH FOR TREATING MENSTRUAL PAIN” (REMY BIOSCIENCES, priority 2021, published 2024)
